# In paper PMC3319082 (Bioorganic & medicinal chemistry letters, 2011):
# Target: rat mGlu4 (Rattus norvegicus, UniProt P31423)
# Format: cell-based
# Conditions: rat mGlu4/GIRK cells, Fig. 2
# Chain of rat mGlu4 (P31423 33-912): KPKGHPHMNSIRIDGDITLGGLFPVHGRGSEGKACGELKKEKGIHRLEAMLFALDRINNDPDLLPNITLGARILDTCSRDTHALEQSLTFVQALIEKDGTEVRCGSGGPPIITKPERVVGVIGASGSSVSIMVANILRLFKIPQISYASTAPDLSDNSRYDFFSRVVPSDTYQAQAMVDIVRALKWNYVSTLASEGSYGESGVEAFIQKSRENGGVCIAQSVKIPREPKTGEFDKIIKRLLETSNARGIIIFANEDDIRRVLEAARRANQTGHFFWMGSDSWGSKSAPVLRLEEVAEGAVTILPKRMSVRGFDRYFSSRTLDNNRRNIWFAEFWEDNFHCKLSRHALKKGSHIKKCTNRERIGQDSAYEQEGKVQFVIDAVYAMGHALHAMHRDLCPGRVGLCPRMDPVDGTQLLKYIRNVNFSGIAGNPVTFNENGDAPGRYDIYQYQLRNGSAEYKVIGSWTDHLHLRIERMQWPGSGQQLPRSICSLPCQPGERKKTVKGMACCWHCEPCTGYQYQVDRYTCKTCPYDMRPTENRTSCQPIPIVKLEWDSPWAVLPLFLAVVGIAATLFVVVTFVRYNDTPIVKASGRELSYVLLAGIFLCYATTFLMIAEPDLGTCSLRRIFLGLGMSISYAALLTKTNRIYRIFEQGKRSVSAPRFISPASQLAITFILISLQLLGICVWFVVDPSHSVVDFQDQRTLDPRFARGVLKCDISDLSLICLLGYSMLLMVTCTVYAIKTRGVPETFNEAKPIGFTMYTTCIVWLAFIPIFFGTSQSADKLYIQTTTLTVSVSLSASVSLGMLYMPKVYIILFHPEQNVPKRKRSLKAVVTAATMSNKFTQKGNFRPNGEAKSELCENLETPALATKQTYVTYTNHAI
smiles,measurement,value
O=C(COc1ccccc1Br)c1ccc(Cl)nc1 [2e],Antagonist activity in rat mGlu4 thallium flux assay,confirmed to be active
